# Measured values as given in patent US9835629B2, “Methods and reagents for biomolecule labeling, enrichment and gentle elution” (Pierce Biotechnology, Inc., priority 2012, dated 2017).
# Columns and labels:
# anti-TMT™ antibody [1] = assay: surface plasmon resonance competitive elution of anti-TMT antibody bound to a TMT-labeled surface; type: binding, mice; details: washing in μM to mM concentrations, room temperature
# Experimental: (§1) As the protein is labeled at nearly all amine sites, more sites on the protein are likely bound to the resin and more competitor reagent is necessary to elute the bound protein (FIG. 3B).
# For total cysteine alkylation, cell lysates and purified proteins were denatured, reduced, and labeled with excess iodoTMTzero or iodoTMTsixplex reagents prior to enzymatic digestion. For cysteine S-nitrosylation quantitation, samples were treated with nitrosylation donor agents (e.g. GSH-NO) and alkylated with methyl methanethiosulfonate (MMTS) to block unmodified sulfhydryl groups. […] An anti-TMT antibody resin was used for labeled peptide enrichment. Peptide samples were analyzed using a Thermo Scientific LTQ™ ORBITRAP XL mass spectrometer. Data were analyzed using Thermo Scientific PROTEOME DISCOVERER 1.3 software. Elution buffer was evaluated by surface plasmon resonance (SPR) using a TMT-derivatized CM5 chip on a GE Healthcare BIACORE 3000 instrument.
# Anti-TMT™ antibody resin = assay: elution of TMT-labeled protein from anti-TMT antibody resin; parameters: species or system mice; details: micromolar to millimolar, intact protein labeled with amine-reactive TMT
# Source text: as §1
# [2] = tested on: anti-TMT immobilized antibody resin; assay: elution of iodoTMT-labeled peptides of a cell lysate from anti-TMT resin, LC-MS/MS; parameters: species or system mice
# Experimental: Peptides were washed with Tris buffered saline (TBS), […] detergent (Waters), or CHAPS detergent and eluted with 0.4% trifluoracetic acid (pH about 2), or washed with TBS and water prior to elution with DMP at the indicated concentrations and pH. Eluted peptides were analyzed by LC-MS/MS on a Thermo Scientific ORBITRAP XL and data was interpreted with Thermo Scientific PROTEOME DISCOVERER 1.3 to identify the eluted peptides and the number of iodoTMT labeled peptides specifically eluted (percentage shown above each bar). In FIG. 4B, a cell lysate was S-nitrosylated in vitro with nitroglutathione, the free thiols were irreversibly alkylated with iodoacetamide, the nitroso groups were reduced and selectively released with ascorbic acid, the newly exposed cysteines were irreversibly alkylated with iodoTMT, and the samples were then reduced to remove disulfide linkages, alkylated with iodoacetamide, and digested with trypsin. These peptide samples were enriched with the anti-TMT antibody, and samples of the load, the flowthrough, and the non-specific and specific elutions were assessed for peptide recovery and specificity.
# Cell lysates were labeled with an irreversible cysteine-reactive iodoacetyl TMT® reagent, digested, and then captured with the anti-TMT™ resin. The bound peptides were eluted non-specifically with different pH and detergent conditions or specifically with different concentrations and pH of DMP elution reagent (FIG. 4A). […] As DMP is not a biological molecule, there is no interference from endogenous levels. In contrast, biotinylated molecules are more difficult to recover and may result in the enrichment of interfering endogenously biotinylated molecules.
# anti-TMT™ antibody [3] = assay: enrichment and elution of S-nitrosylated, iodoTMT-labeled peptides with anti-TMT antibody; parameters: species or system mice; details: in vitro S-nitrosylated cell lysate
# Experimental: Peptides were washed with Tris buffered saline (TBS), […] detergent (Waters), or CHAPS detergent and eluted with 0.4% trifluoracetic acid (pH about 2), or washed with TBS and water prior to elution with DMP at the indicated concentrations and pH. Eluted peptides were analyzed by LC-MS/MS on a Thermo Scientific ORBITRAP XL and data was interpreted with Thermo Scientific PROTEOME DISCOVERER 1.3 to identify the eluted peptides and the number of iodoTMT labeled peptides specifically eluted (percentage shown above each bar). […] These peptide samples were enriched with the anti-TMT antibody, and samples of the load, the flowthrough, and the non-specific and specific elutions were assessed for peptide recovery and specificity.
# The cysteine-reactive […] tags and affinity enrichment reagents are used for the enrichment, detection, and quantification of low abundance protein modifications. […] These peptide samples were then enriched with the anti-TMT™ antibody, and a sample of the load, the flowthrough, and the non-specific and specific elutions were assessed for peptide recovery and specificity (FIG. 4B). […]
# For total cysteine alkylation, cell lysates and purified proteins were denatured, reduced, and labeled with excess iodoTMTzero or iodoTMTsixplex reagents prior to enzymatic digestion. […] Peptide samples were analyzed using a Thermo Scientific LTQ™ ORBITRAP XL mass spectrometer. […]
# [4] = iodoacetyl TMT-labeled cell lysate peptides
compound,measurement,setting,value
"C[C@@H]1CCC[C@H](C)N1 [DMP, cis-2,6-dimethyl piperidine]",elution of bound anti-TMT antibody from TMT-labeled surface,anti-TMT™ antibody [1],elutes bound antibody within minutes
same,elution of bound TMT-labeled protein from anti-TMT antibody resin,Anti-TMT™ antibody resin,efficiently eluted
same,elution efficiency at high pH,"[2]; 10 mM, high pH",even more efficient
same,specificity of elution at high pH,"[2]; 10 mM, high pH",lower specificity of elution
same,number of peptides eluted versus non-specific elution conditions,[2]; [4],over 100 times
same,specificity of elution,[2]; [4],greater than 90%
same,more peptides yielded than a low pH elution,anti-TMT™ antibody [3]; specific elution,approximately 50%
same,specificity of the enrichment of iodoTMT-labeled peptides,anti-TMT™ antibody [3]; specific elution (6% with low pH elution),21%
